From PubChem BioAssay (NCI)
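In this assay, cells in 96-well plates receive the compound at five concentrations for 48 hours. Endpoints are linearly interpolated between the surrounding concentrations. TGI marks complete inhibition of growth.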

How the values were obtained:
Assay in all cases: growth of human tumour cells (NCI), 48 h
LXFL 529 NSCLC = system: LXFL 529 NSCLC
DMS 273 small cell lung = system: DMS 273 small cell lung
SW-620 colon = system: SW-620 colon
A549 NSCLC = system: A549 NSCLC
M14 melanoma = system: M14 melanoma
M19-MEL melanoma = system: M19-MEL melanoma
SK-MEL-2 melanoma = system: SK-MEL-2 melanoma
LOX IMVI melanoma = system: LOX IMVI melanoma
K-562 leukemia = system: K-562 leukemia
RXF 393 renal = system: RXF 393 renal
HL-60(TB) leukemia = system: HL-60(TB) leukemia
UACC-257 melanoma = system: UACC-257 melanoma
ACHN renal = system: ACHN renal
UO-31 renal = system: UO-31 renal
OVCAR-8 ovarian = system: OVCAR-8 ovarian
CCRF-CEM leukemia = system: CCRF-CEM leukemia
IGROV1 ovarian = system: IGROV1 ovarian
SK-MEL-28 melanoma = system: SK-MEL-28 melanoma
NCI-H522 lung = system: NCI-H522 lung
DMS 114 small cell lung = system: DMS 114 small cell lung
UACC-62 melanoma = system: UACC-62 melanoma
SK-OV-3 ovarian = system: SK-OV-3 ovarian
HOP-18 NSCLC = system: HOP-18 NSCLC
KM12 colon = system: KM12 colon
KM20L2 colon = system: KM20L2 colon
U251 CNS = system: U251 CNS
MALME-3M melanoma = system: MALME-3M melanoma
SNB-78 CNS = system: SNB-78 CNS
OVCAR-4 ovarian = system: OVCAR-4 ovarian
OVCAR-5 ovarian = system: OVCAR-5 ovarian
NCI-H226 lung = system: NCI-H226 lung
COLO 205 colon = system: COLO 205 colon
HT29 colon = system: HT29 colon
TK-10 renal = system: TK-10 renal
RPMI-8226 leukemia = system: RPMI-8226 leukemia
HCT-116 colon = system: HCT-116 colon
NCI-H460 lung = system: NCI-H460 lung
MOLT-4 leukemia = system: MOLT-4 leukemia
A498 renal = system: A498 renal
HCC-2998 colon = system: HCC-2998 colon
SN12C renal = system: SN12C renal
OVCAR-3 ovarian = system: OVCAR-3 ovarian
CAKI-1 renal = system: CAKI-1 renal
SNB-75 CNS = system: SNB-75 CNS
HCT-15 colon = system: HCT-15 colon
786-0 renal = system: 786-0 renal
NCI-H23 lung = system: NCI-H23 lung
SF-268 CNS = system: SF-268 CNS
DLD-1 colon = system: DLD-1 colon
HOP-92 NSCLC = system: HOP-92 NSCLC
SF-295 CNS = system: SF-295 CNS
EKVX NSCLC = system: EKVX NSCLC
SK-MEL-5 melanoma = system: SK-MEL-5 melanoma
SF-539 CNS = system: SF-539 CNS
SNB-19 CNS = system: SNB-19 CNS
HOP-62 NSCLC = system: HOP-62 NSCLC

Measured: TGI

CCOC(=O)N1CCN(P(=O)(Nc2ccc3nc(NC(=O)OC)[nH]c3c2)Oc2ccccc2)CC1 (configuration not stated)
not listed: SF-295 CNS | EKVX NSCLC | SK-MEL-5 melanoma | SF-539 CNS | SNB-19 CNS | HOP-62 NSCLC
> 100 µM: all other assays above

CCC1=C(C(C)=O)[C@@H]2CCCCC(C(=O)OC)[C@@H]2C1=O (some centres not stated)
not listed: LOX IMVI melanoma | OVCAR-3 ovarian
> 100 µM: all other assays above

CC(=O)OC12c3ccccc3C1CCCC21OCCCO1 (configuration not stated)
not listed: HL-60(TB) leukemia | HOP-92 NSCLC | SK-MEL-5 melanoma
> 100 µM: all other assays above
